Experimental data as given in patent US20230066011A1, “PYRROLOPYRIMIDINE DERIVATIVE, AND PHARMACEUTICAL COMPOSITION FOR PREVENTING OR TREATING PROTEIN KINASE-RELATED DISEASE COMPRISING SAME AS ACTIVE INGREDIENT” (VORONOI CO., LTD., priority 2019, published 2023).

Legend:
Format in all cases: biochemical
LRRK2 (G2019S) = LRRK2 (G2019S) (Homo sapiens, UniProt Q5S007, G2019S); assay: LRRK2 G2019S enzyme inhibition, ADP-Glo kinase assay; set-up: purchased SignalChem L10-12GG; settings: ATP 25 μM
Experimental: To evaluate an inhibitory activity of the compound according to the present invention against LRRK2, LRRK2 (G2019S), DYRK1, CLK1, and TTK kinases, experiments were performed as follows.
Each of the Example compounds was reacted with a purified human LRRK2 G2019S (L10-12GG, SignalChem) enzyme to evaluate an ability to inhibit an enzyme using a method as described below. A composition of 40 mM Tris-HCl (pH 7.4), 20 mM MgCl2, 0.5 mg/mL BSA, and 50 μM DTT was used as a reaction buffer, and all reactions of test substances were performed in the reaction buffer. Each of the compounds was diluted […] from a 10 mM DMSO stock using a serial dilution method, and enzyme activities were measured at final compound concentrations of 50, 10, 2, 0.4, 0.08, 0.016, 0.0032, 0.00064, 0.000128, 0.0000256, 0.00000512, and 0.000001024 μM. In the test, purified ATP (25 μM) and an enzyme substrate (0.2 μg) were reacted with a human LRRK2 G2019S (16 ng) enzyme at 25° C. for 2 hours, and the enzyme activities were then determined using an in vitro ADP-Glo™ kinase assay (Promega). An enzyme-activity reaction solution, an ADP-Glo reaction solution, and an enzyme-ability detection solution were reacted at a ratio of 2:2:1 to measure a degree of inhibition of the enzyme activity with luminescence. The degree of inhibition of the enzyme activity according to the treatment concentration of each of the compounds was calculated based on the fluorescence of the enzyme activity of the solvent control which was not treated with the compound. In this case, the concentration of each of the compounds inhibiting 50% of the enzyme activity was determined to be an IC50 (nM) value, and calculated using Prism (Version 5.01; GraphPad) software.

human GST-DYRK1A = biological target: T1, human GST-DYRK1A (Homo sapiens, UniProt Q13627); assay: GST-DYRK1A enzyme inhibition, ADP-Glo kinase assay; settings: ATP 10 μM, GST-DYRK1A full length, read-out: DYRK1 IC50
T1 construct: purified human GST-DYRK1A (full length, Thermo Scientifics) enzyme; purchased Thermo Scientifics
In short: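 Full-length human GST-DYRK1A (10 ng) with 10 μM ATP and specific substrate in 40 mM Tris-HCl pH 7.4, 20 mM MgCl2, 0.5 mg/mL BSA, 50 μM DTT, 1 h at 25 °C. ADP formation read by ADP-Glo luminescence relative to solvent control; IC50 from three data sets.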

human GST-CLK1 = biological target: T2, human GST-CLK1 (Homo sapiens, UniProt P49759); assay: GST-CLK1 enzyme inhibition, ADP-Glo kinase assay; settings: ATP 10 μM, GST-CLK1 129-end
T2 construct: purified human GST-CLK1 (129-end, SignalChem) enzyme; purchased SignalChem
T2 sequence (P49759 129-484 limits assumed): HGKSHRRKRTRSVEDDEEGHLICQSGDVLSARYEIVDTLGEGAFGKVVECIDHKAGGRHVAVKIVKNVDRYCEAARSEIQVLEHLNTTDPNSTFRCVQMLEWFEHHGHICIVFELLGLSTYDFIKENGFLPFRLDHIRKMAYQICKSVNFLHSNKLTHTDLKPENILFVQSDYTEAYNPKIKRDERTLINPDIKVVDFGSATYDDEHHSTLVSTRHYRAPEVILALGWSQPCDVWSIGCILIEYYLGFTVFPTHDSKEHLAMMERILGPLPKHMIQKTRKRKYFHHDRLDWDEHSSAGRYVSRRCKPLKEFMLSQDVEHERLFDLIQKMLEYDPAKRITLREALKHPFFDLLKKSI
In short: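 Human GST-CLK1 (129-end, 3 ng) reacted with substrate and 10 μM ATP for 1 h at 25° C in 40 mM Tris-HCl pH 7.4, 20 mM MgCl2, 0.5 mg/mL BSA, 50 μM DTT. ADP-Glo luminescence was normalised to solvent control; IC50 (nM) from 3 data sets.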

Chain of LRRK2 (G2019S) (Q5S007 970-2527 G2019S limits assumed): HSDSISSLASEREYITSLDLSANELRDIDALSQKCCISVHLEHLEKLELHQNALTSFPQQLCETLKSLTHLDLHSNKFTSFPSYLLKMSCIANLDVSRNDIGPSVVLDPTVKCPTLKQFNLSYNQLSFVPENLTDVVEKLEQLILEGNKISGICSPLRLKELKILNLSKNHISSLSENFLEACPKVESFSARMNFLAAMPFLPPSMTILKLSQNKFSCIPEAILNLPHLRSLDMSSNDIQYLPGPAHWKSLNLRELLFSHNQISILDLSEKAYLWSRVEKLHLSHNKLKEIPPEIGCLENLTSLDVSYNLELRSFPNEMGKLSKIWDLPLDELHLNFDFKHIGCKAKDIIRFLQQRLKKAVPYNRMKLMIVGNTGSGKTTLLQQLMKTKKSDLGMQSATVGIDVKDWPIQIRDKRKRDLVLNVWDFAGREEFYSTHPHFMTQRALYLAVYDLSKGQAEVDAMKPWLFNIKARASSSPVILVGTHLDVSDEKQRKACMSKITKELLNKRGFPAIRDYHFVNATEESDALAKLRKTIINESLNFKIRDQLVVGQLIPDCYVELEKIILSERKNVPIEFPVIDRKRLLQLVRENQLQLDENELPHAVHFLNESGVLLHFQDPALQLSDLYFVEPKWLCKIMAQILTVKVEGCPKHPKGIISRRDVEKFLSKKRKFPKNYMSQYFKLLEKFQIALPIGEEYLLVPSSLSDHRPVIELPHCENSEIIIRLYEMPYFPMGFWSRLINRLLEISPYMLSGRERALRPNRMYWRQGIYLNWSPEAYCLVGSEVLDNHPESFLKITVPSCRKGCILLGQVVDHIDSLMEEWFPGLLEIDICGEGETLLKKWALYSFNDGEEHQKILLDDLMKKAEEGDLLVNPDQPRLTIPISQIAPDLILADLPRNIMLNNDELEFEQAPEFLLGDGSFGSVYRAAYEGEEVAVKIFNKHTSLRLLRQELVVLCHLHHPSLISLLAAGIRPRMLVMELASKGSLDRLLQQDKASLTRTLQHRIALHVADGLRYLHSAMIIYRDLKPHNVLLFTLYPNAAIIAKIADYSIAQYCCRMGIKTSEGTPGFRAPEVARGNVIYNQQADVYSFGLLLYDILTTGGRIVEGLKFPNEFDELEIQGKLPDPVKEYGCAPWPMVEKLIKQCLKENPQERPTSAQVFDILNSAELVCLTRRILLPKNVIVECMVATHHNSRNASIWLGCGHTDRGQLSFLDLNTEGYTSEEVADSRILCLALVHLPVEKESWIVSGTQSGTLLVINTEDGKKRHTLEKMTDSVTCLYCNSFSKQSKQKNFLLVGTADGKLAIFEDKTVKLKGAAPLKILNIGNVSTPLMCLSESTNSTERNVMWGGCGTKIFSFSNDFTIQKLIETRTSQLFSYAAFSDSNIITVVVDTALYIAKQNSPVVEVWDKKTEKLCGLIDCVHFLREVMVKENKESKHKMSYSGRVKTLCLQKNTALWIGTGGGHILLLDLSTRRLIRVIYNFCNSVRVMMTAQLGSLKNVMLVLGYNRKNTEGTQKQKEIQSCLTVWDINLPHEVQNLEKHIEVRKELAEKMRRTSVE

Row | Structure (SMILES) | IC50 (LRRK2 (G2019S)) [nM] | IC50 (human GST-DYRK1A) [nM] | IC50 (human GST-CLK1) [nM]
1 | COc1cc(P2(=O)CCN(C3CC3)CC2)ccc1Nc1nc(NCC2CCC2)c2c(C(F)(F)F)c[nH]c2n1 [Example 423, 4-(4-((4-((cyclobutyl-methyl)amino)-5-(trifluoromethyl)-7H-pyrrolo[2,3-d]pyrimidin-2-yl)amino)-3-methoxyphenyl)-1-cyclopropyl-1,4-aza-phosphinane 4-oxide] | < 100 | 301 to 1000 | 301 to 1000
2 | COc1cc(S(C)(=O)=O)ccc1Nc1nc(N[C@H]2CCOC2)c2c(C(F)(F)F)c[nH]c2n1 [Example 384, (S)-N^2-(2-methoxy-4-(methylsulfonyl)phenyl)-N^4-(tetrahydrofuran-3-yl)-5-(trifluoromethyl)-7H-pyrrolo[2,3-d]pyrimidine-2,4-diamine] | < 100 | 301 to 1000 | < 100
3 | CNc1nc(Nc2ccc(S(=O)(=O)N3CCC(N4CCOCC4)CC3)cc2OC)nc2[nH]ccc12 [Example 3, N^2-(2-methoxy-4-((4-morpholinopiperidin-1-yl)sulfonyl)phenyl)-N^4-methyl-7H-pyrrolo[2,3-d]pyrimidine-2,4-diamine 2,2,2-trifluoroacetate] | < 100 | 301 to 1000 | 301 to 1000
4 | COc1cc(S(=O)(=O)N2CCC(N3CCOCC3)CC2)ccc1Nc1nc(NC2CCC2)c2cc[nH]c2n1 [Example 23, N^4-cyclobutyl-N^2-(2-methoxy-4-((4-morpholinopiperidin-1-yl)sulfonyl)phenyl)-7H-pyrrolo[2,3-d]pyrimidine-2,4-diamine 2,2,2-trifluoroacetate] | < 100 | 301 to 1000 | 301 to 1000
5 | CC[C@@H](C)Nc1nc(Nc2ccc(C(=O)N3CCC(N4CCOCC4)CC3)c3c2OCC3)nc2[nH]cc(C#N)c12 [Example 355, (R)-4-(sec-butylamino)-2-((4-(4-morpho-linopiperidine-1-carbonyl)-2,3-dihydro-benzofuran-7-yl)amino)-7H-pyrrolo[2,3-d]pyrimidine-5-carbonitrile] | < 100 | < 100 | < 100
6 | COc1cc(S(=O)(=O)N2CCOCC2)ccc1Nc1nc(NC2CCCC2)c2cc[nH]c2n1 [Example 25, N^4-cyclopentyl-N^2-(2-methoxy-4-(morpholinosulfonyl)phenyl)-7H-pyrrolo[2,3-d]pyrimidine-2,4-diamine 2,2,2-trifluoroacetate] | < 100 | 301 to 1000 | 301 to 1000
7 | O=C(c1ccc(Nc2nc(NC3CCCC3)c3c(C(F)(F)F)c[nH]c3n2)c2c1CCO2)N1CCOCC1 [Example 453, (7-((4-(cyclo-pentylamino)-5-(trifluoromethyl)-7H-pyrrolo[2,3-d]pyrimidin-2-yl)amino)-2,3-dihydrobenzo-furan-4-yl) (morpholino) methanone] | < 100 | 301 to 1000 | 301 to 1000
8 | CCCNc1nc(Nc2ccc(S(=O)(=O)N3CCC(N4CCOCC4)CC3)cc2OC)nc2[nH]ccc12 [Example 8, N^2-(2-methoxy-4-((4-morpholinopiperidin-1-yl)sulfonyl)phenyl)-N^4-propyl-7H-pyrrolo[2,3-d]pyrimidine-2,4-diamine 2,2,2-trifluoroacetate] | < 100 | 301 to 1000 | 301 to 1000
9 | COc1cc(P(C)(C)=O)ccc1Nc1nc(NC2CCOCC2)c2c(C(F)(F)F)c[nH]c2n1 [Example 389, (3-methoxy-4-((4-((tetrahydro-2H-pyran-4-yl)amino)-5-(trifluoromethyl)-7H-pyrrolo[2,3-d]pyrimidin-2-yl)amino)phenyl) dimethyl-phosphine oxide] | < 100 | 301 to 1000 | < 100
10 | COc1cc(P2(=O)CCN(C3COC3)CC2)ccc1Nc1nc(NC(C)C)c2c(C#N)c[nH]c2n1 [Example 293, 4-(isopropylamino)-2-((2-methoxy-4-(1-(oxetan-3-yl)-4-oxido-1,4-azaphosphinan-4-yl)phenyl)amino)-7H-pyrrolo[2,3-d]pyrimidine-5-carbonitrile] | – | 101 to 300 | < 100
11 | COc1cc(P(C)(C)=O)ccc1Nc1nc(NC2CCCCC2)c2c(C(F)(F)F)c[nH]c2n1 [Example 196, (4-((4-(cyclohexylamino)-5-(trifluoromethyl)-7H-pyrrolo[2,3-d]pyrimidin-2-yl)amino)-3-methoxyphenyl)dimethylphosphine oxide] | – | 101 to 300 | 301 to 1000
12 | COc1cc(P(C)(C)=O)ccc1Nc1nc(N[C@H]2CCOC2)c2c(C#N)c[nH]c2n1 [Example 271, (S)-2-((4-(dimethylphosphoryl)-2-methoxyphenyl)amino)-4-((tetrahydrofuran-3-yl)amino)-7H-pyrrolo[2,3-d]pyrimidine-5-carbonitrile] | – | 301 to 1000 | 101 to 300
13 | COCCNc1nc(Nc2ccc(P(C)(C)=O)cc2OC)nc2[nH]cc(C#N)c12 [Example 115, 2-((4-(dimethylphosphoryl)-2-methoxyphenyl)amino)-4-((2-methoxyethyl)amino)-7H-pyrrolo[2,3-d]pyrimidine-5-carbonitrile] | – | 301 to 1000 | < 100
14 | O=C(c1ccc(Nc2nc(N[C@H]3CCOC3)c3cc[nH]c3n2)c2c1OCCO2)N1CCOCC1 [Example 51, (S)-morpholino(8-((4-((tetrahydrofuran-3-yl)amino)-7H-pyrrolo[2,3-d]pyrimidin-2-yl)amino)-2,3-dihydrobenzo[b][1,4]dioxin-5-yl)methanone] | – | 301 to 1000 | 301 to 1000
15 | COc1cc(P(C)(C)=O)ccc1Nc1nc(NCC2CCCC2)c2c(C#N)c[nH]c2n1 [Example 274, 4-((cyclopentylmethyl)amino)-2-((4-(dimethylphosphoryl)-2-methoxyphenyl)amino)-7H-pyrrolo[2,3-d]pyrimidine-5-carbonitrile] | – | 301 to 1000 | 301 to 1000
16 | COc1cc(P2(=O)CCN(C3CC3)CC2)ccc1Nc1nc(NCC2CCC2)c2c(C#N)c[nH]c2n1 [Example 306, 4-((cyclo-butylmethyl)amino)-2-((4-(1-cyclopropyl-4-oxido-1,4-azaphosphinan-4-yl)-2-methoxyphenyl)a-mino)-7H-pyrrolo[2,3-d]pyrimidine-5-carbonitrile] | – | 301 to 1000 | 301 to 1000
17 | CC[C@@H](C)Nc1nc(Nc2ccc(P3(=O)CCN(C4CC4)CC3)cc2OC)nc2[nH]cc(C#N)c12 [Example 294, (R)-4-(sec-butylamino)-2-((4-(1-cyclopropyl-4-oxido-1,4-azaphosphinan-4-yl)-2-methoxyphenyl)a-mino)-7H-pyrrolo[2,3-d]pyrimidine-5-carbonitrile] | – | 301 to 1000 | < 100
18 | N#Cc1c[nH]c2nc(Nc3ccc(C(=O)N4CCN(C5COC5)CC4)c4c3OCCO4)nc(NCC3CCC3)c12 [Example 318, 4-((cyclo-butylmethyl)amino)-2-((8-(4-(oxetan-3-yl)piperazine-1-carbonyl)-2,3-dihydrobenzo[b] [1,4]dioxin-5-yl)amino)-7H-pyrrolo[2,3-d]pyrimidine-5-carbonitrile] | – | 301 to 1000 | 101 to 300
19 | N#Cc1c[nH]c2nc(Nc3ccc(C(=O)N4CC(CO)(CO)C4)c4c3OCCO4)nc(NC3CCCC3)c12 [Example 334, 2-((8-(3,3-bis (hydroxymethyl)azetidine-1-carbonyl)-2,3-dihydrobenzo[b] [1,4]dioxin-5-yl)amino)-4-(cyclopentyl-amino)-7H-pyrrolo[2,3-d]pyrimidine-5-carbonitrile] | – | 301 to 1000 | < 100
